US6716605B2, “Indole derivatives having an antiviral activity” (Shionogi & Co., Ltd., priority 1998, dated 2004)

molecular target: HIV-1 integrase (Human immunodeficiency virus type 1 group M subtype B, UniProt P04585); assay: HIV-1 integrase inhibition assay (microtiter plate, substrate DNA/target DNA, OD 405 nm); assay type: biochemical
Procedure: The DNA solutions were annealed with each complement by slowly cooling after heating.
After coating each well of microtiter plates (obtained from NUNC) with 50 μl of the above solution at 4° C. overnight, each well was washed twice with PBS (composition: […], 0.27 mM KCl, 0.43 mM Na2HPO4, 0.14 mM KH2PO4) and blocked with 300 μl of 1% skim milk in PBS for 30 min. Additionally, each well was washed twice with PBS and added 50 μl of substrate DNA solution (2 pmol/μl). The microtiter plates were kept at room temperature for 30 min. Then, each well was washed twice with PBS and once with H2O.
The microtiter plates were incubated at 30° C. for 1 hour. […] Then, each well was washed twice with 0.05% Tween20 in PBS and once with PBS. […] The optical density (OD) at 405 nm of each well was measured and the percent inhibition was determined by the following expression.

Compound	IC50 [µM]
O=C(O)C(O)=CC(=O)c1cn(S(=O)(=O)c2ccccc2)c2ccc(Cl)cc12 [Example 23(2), 4-(1-Benzenesulfonyl-5-chloroindol-3-yl)-2-hydroxy-4-oxo-2butenoic acid]	0.32
O=C(C=C(O)c1nc[nH]n1)c1c[nH]c2ccc(Cl)cc12 [Example 71]	5.16
O=C(C=C(O)c1nn[nH]n1)c1cn(S(=O)(=O)c2cccs2)c2ccc(Cl)cc12 [Example 80]	7.57
O=C(C=C(O)c1nn[nH]n1)c1cn(Cc2ccccc2)c2ccc(Cl)cc12 [Example 81]	9.48

tested on: not given; assay: not given

Compound	melting point
O=C(O)c1cccc(C(O)=CC(=O)c2cn(S(=O)(=O)c3ccccc3)c3ccc(Cl)cc23)c1	245 to 255 °C (dec.)
O=C(O)c1cccc(C(O)=CC(=O)c2c[nH]c3ccc(Cl)cc23)c1	> 270 °C (dec.)
O=C(/C=C(\O)c1nn[nH]n1)c1c([S+]([O-])c2cc(Cl)cc(Cl)c2)[nH]c2ccc(Cl)cc12 (stereo not shown)	200 to 204 °C (dec.)
COC(=O)/C(O)=C/C(=O)c1c(Cc2ccc(F)cc2)[nH]c2ccc(Cl)cc12	235 to 238 °C
O=C(/C=C(\O)c1nn[nH]n1)c1c(CCCc2ccc(F)cc2)[nH]c2ccc(Cl)cc12	181 to 182 °C (dec.)
COc1ccccc1Cc1[nH]c2ccc(Cl)cc2c1C(=O)/C=C(\O)c1nn[nH]n1	245 °C (dec.)
O=C(/C=C(\O)c1ncc[nH]1)c1c[nH]c2ccc(Cl)cc12	272 to 276 °C
O=C(/C=C(\O)c1nccs1)c1c[nH]c2ccc(Cl)cc12	226 to 227 °C
COc1ccccc1Cn1cc(C(=O)/C=C(\O)c2nn[nH]n2)c2cc(Cl)ccc21	256 °C (dec.)
O=C(/C=C(\O)c1nn[nH]n1)c1cn(Cc2ccccc2)c2c(Cl)cccc12	252 °C (dec.)
O=C(/C=C(\O)c1nc[nH]n1)c1cn(S(=O)(=O)c2ccccc2)c2ccc(Br)cc12	290 to 295 °C (dec.)
O=C(/C=C(\O)c1nc[nH]n1)c1cn(S(=O)(=O)c2ccccc2)c2cc(Cl)ccc12	265 to 270 °C
O=C(/C=C(\O)c1nc[nH]n1)c1cn(S(=O)(=O)c2ccc(F)cc2)c2ccc(Br)cc12	266 to 270 °C
O=C(/C=C(\O)c1nc[nH]n1)c1cn(S(=O)(=O)c2ccc(F)cc2)c2cc(Cl)ccc12	293 to 298 °C (dec.)
O=C(/C=C(\O)c1nc[nH]n1)c1cn(S(=O)(=O)c2cc(Cl)ccc2Cl)c2ccc(Cl)cc12	301 to 302 °C
O=C(/C=C(\O)c1nc[nH]n1)c1cn(Cc2ccccc2)c2ccc(Cl)cc12	264 to 265 °C
O=C(/C=C(\O)c1nc[nH]n1)c1cn(Cc2ccc(F)cc2)c2ccc(Br)cc12	265 to 268 °C
O=C(/C=C(\O)c1nc[nH]n1)c1cn(Cc2ccc(F)cc2)c2cc(Cl)ccc12	260 to 263 °C
O=C(/C=C(\O)c1nccs1)c1cn(S(=O)(=O)c2ccccc2)c2ccc(Cl)cc12	191 to 194 °C
O=C(O)/C(O)=C/C(=O)c1cn(Cc2ccc(C(=O)O)cc2)c2ccc(Cl)cc12	245 °C (dec.)
CCOC(=O)C(=CC(=O)c1cn(Cc2ccccc2)c2ccc(Cl)cc12)NC	131 to 132 °C
CNC(=CC(=O)c1cn(Cc2ccccc2)c2ccc(Cl)cc12)C(=O)O	205 to 210 °C (dec.)
CCOCCNC(=CC(=O)c1cn(Cc2ccccc2)c2ccc(Cl)cc12)C(=O)OCC	73 to 74 °C
CCOCCNC(=CC(=O)c1cn(Cc2ccccc2)c2ccc(Cl)cc12)C(=O)O	184 to 186 °C (dec.)
CCOC(=O)C(N)=CC(=O)c1c[nH]c2ccccc12	200 to 205 °C
O=C(OC(c1ccccc1)c1ccccc1)C(O)=CC(=O)c1cn(C(=O)c2ccc(F)cc2)c2ccc(Cl)cc12	198 to 200 °C
O=C(O)C(O)=CC(=O)c1cn(C(=O)c2ccc(F)cc2)c2ccc(Cl)cc12	213 to 218 °C
O=C(C=C(O)c1nc[nH]n1)c1c[nH]c2ccc(Cl)cc12 [Example 71]	277 to 279 °C
O=C(C=C(O)c1nn[nH]n1)c1cn(S(=O)(=O)c2cccs2)c2ccc(Cl)cc12 [Example 80]	243 °C
O=C(C=C(O)c1nn[nH]n1)c1cn(Cc2ccccc2)c2ccc(Cl)cc12 [Example 81]	> 240 °C
